From patent publication US20100317671A1, “XANTHINE-BASED CYCLIC GMP-ENHANCING RHO-KINASE INHIBITOR INHIBITS PHYSIOLOGICAL ACTIVITIES OF LUNG EPITHELIAL CELL LINE” (KAOHSIUNG MEDICAL UNIVERSITY, priority 2008, published 2010)

Assays:
MMP-9 [1] = experiment: OVA-induced MMP-9 expression in lung tissue, asthma mice; assay type: in vivo, BALB/c mice; conditions: nebulization, 28-day experiment; western blotting and zymography
Description: The male BALB/c mice (20-23 g) are injected (i.p.) with OVA (5 mM, 30 mins), sensitized with OVA on day 1 and day 8 via i.p injection and activated by 2 mg aluminum hydroxide to which 2 μg OVA is absorbed. […] The asthmatic animals are divided into 5 groups, wherein the control group is only administered with saline spray and the remaining experimental groups are firstly administered with 1% OVA spray and then administered with the sprays of the related complex salts respectively as shown in Table 4. The inhibition of the expression of OVA-induced MMP-9 in lung tissue of BALB/c mice is measured.

MMP-9 [2] = experiment: Short-term nebulization without OVA sensitization, lung tissue; assay type: in vivo, mice; conditions: 1.0~2.5 mM, 30 mins nebulization, no OVA
Description: (§1) Short-term KMUP-1 (5 mM, 30 min) nebulization and pretreatment with L-NAME (12 mM, […]) are accomplished using a previously described method. Aerosols were generated by ultrasonic nebulizer from day 21 to 27. Mice were sacrificed on day 28. Three different experiments were performed on cohorts of 7-14 mice per experimental condition.
(§2) Please refer to FIGS. 22(B) and 23(B), the changes of eNOS and MMP-9 expression by KMUP-1 (2.5 mM, 30 mins) are reversed by L-NAME-pretreatment (12 mM, 30 mins).

eNOS = experiment: as above; assay type: in vivo, mice; conditions: 1.0~2.5 mM, 30 mins nebulization, no OVA
Description: as §1, §2

[3] = tested on: total cells, lymphocytes and eosinophils in BALF; experiment: Cellular components in BALF, OVA-challenged mice; assay type: in vivo; conditions: 24 hrs after last OVA challenge; nebulization
From the text: Inflammation and remodeling of the bronchioles is associated with infiltration of blood-born lymphocytes, eosinophils and neutrophils, migrating into bronchial lumen. During the course of allergic disease, structural changes occur in the airways, referred to as remodeling. However, treatment with KMUP-1 prevents the migration of blood born cells into bronchiole.

MMP-9 [4] = experiment: Immunostaining of lung sections, OVA mice; assay type: in vivo; conditions: OVA-sensitized and -challenged mice
[5] = tested on: inflammatory cells, vascular and bronchial wall; experiment: Histological analyses of lung, OVA-exposed mice; assay type: in vivo
From the text: Histological analyses show the typical pathologic features of asthma in the OVA-exposed mice. Numerous inflammatory cells including eosinophils are infiltrated around the peri-vascular and peri-bronchial region, compared to control mice. […] After OVA challenge, marked increases in PA wall thickness % are found, compared to controls P<0.01).
OVA-sensitization increases the vascular and bronchial wall thickness, however, treatment with long-term KMUP-1 nebulization prevents these changes. […] MMP-9-immunostaining in peri-bronchial region and the reduced MMP-9-positive cells in bronchiole co-indicate the reduction of migration of infiltrated inflammatory cells.

sGCα1 = experiment: Western blotting of lung tissue, OVA-sensitized and -challenged mice; assay type: in vivo; conditions: nebulization, 28-day experiment
ICAM-1 = experiment: as above; assay type: in vivo
From the text: (§3) Inhaled KMUP-1 can be absorbed into airway and blood flow to increase eNOS and down-regulate Rho-kinase expression by a cGMP-dependent pathway, protecting OVA-sensitized and challenged ICAM-1/VCAM-1 expression-associated cellular adhesion and migration activity of neutrophils.

VCAM-1 = experiment: as above; assay type: in vivo
From the text: as §3

PKG = experiment: as above; assay type: in vivo; conditions: nebulization, 28-day experiment
[6] = tested on: inflammatory cells in the lung lavage; experiment: Inflammatory cells in lung lavage, bleomycin-induced IPF mice; assay type: in vivo; set-up: WBC total (white blood cell total count) / NE (neutrophil) / LY (lymphocyte) / MO (monocyte) / EO (eosinophil) / BA (basophil): unit not given here; conditions: for Amount of WBC in lung lavage: lung inflammatory stage; for BA (basophil) / EO (eosinophil) / LY (lymphocyte) / MO (monocyte) / NE (neutrophil) / WBC total (white blood cell total count): lung lavage
Description: The amounts of the total cell, the neutrophill, the lymphocyte, the monocyte, the eosinophill and the basophill are analyzed by an automatic animal blood cell analyzer for evaluating the extent of the inflammation. […] The mice are euthanatized by administering the Urathane in a dose of 37.5 mg/10 g. The larynx is opened, the trachea is picked out, cut and held by a forcepts and a 0.58 mm PE tube is slowly inserted the trachea for infusing 0.5 ml PBS. The PBS is incubated for 15 seconds and then collected after gently massaging the lung tissue. 1 c.c. lung lavage is obtained after the above steps are repeated twice. The lung lavage is collected and transferred into a centrifuged tube for centrifuging at 1,200 rpm at 4° C. for 6 mins. The supernatant is collected and stored at −80° C. for zymography, and the pellet is suspended in PBS for calculating the WBC count. The pellet of the alveolar lavage is suspended in PBS and transferred into an eppendorff. The amount and kind of the inflammatory cell such as WBC total, the lymphocyte, the monocyte, the neutrophil, the eosinophil and the basophil are analyzed by an automatic animal blood cell analyzer.

TGF-β = TGF-β expression, bleomycin-induced lung fibrosis (EIA); assay type: in vivo, mice; conditions: BM 60 mg/kg; drug 2.5 mg/kg oral
Description: The increased amount of the collagen synthesis and the macrophage generation in alveolus may facilitate the formulation of TGF-β, and the expression of TGF-β is deeming as a biomarker of the lung fibrosis. KMUP-1HCl salt (1, 2.5 and 5 mg/kg), the Simvastatin (5 mg/kg), the KMUP-1-nicotinic acid complex (2.5 mg/kg), the KMUP-1-Simvastatinic acid complex (2.5 mg/kg) and KMUP-1-γ-polyglutamic acid complex (2.5 mg/kg) are orally administered to the mice for inhibiting the lung fibrosis induced by TGF-β expression in tracheal lavage solution that resulted from 60 mg/kg BM inhalation (Table 6). The state of the TGF-β expression in the lavage is measured by the enzyme immunoassay (EIA).

[7] = Monocrotaline (MCT)-induced pulmonary arterial hypertension, PABP; assay type: in vivo, male Wistar rats; conditions: MCT-treated rats
Description: The rats administered MCT (60 mg/kg) are caused pulmonary artery hypertension on day 21 after the intraperitoneal injection. The KMUP-1HCl salt (2.5 mg/kg), Simvastatin (2.5 mg/kg), KMUP-1-nicotinic acid complex (2.5 mg/kg), KMUP-1-citric acid complex (2.5 mg/kg), KMUP-1-Simvastatinic Acid complex (2.5 mg/kg) and KMUP-1-γ-polyglutamic acid complex (2.5 mg/kg) orally administered, or the KMUP-1-PGI2 complex (0.1 mM) inhaled every day may inhibit the pulmonary arterial blood pressure (PABP) in MCT-treated male Wistar rats.

[8] = day 7, dose 2.5 mg/kg (Combination: 2.5 mg/kg each drug)
[9] = day 28, dose 2.5 mg/kg (Combination: 2.5 mg/kg each drug)

Structure (SMILES): Cn1c(=O)c2c(ncn2CCN2CCN(c3ccccc3Cl)CC2)n(C)c1=O [KMUP-1, 7-[2-[4-(2-chlorobenzene)piperazinyl]ethyl]-1,3-dimethylxanthine]
- MMP-9 expression increased by OVA sensitization (MMP-9 [1]): significantly reduced
- MMP-9 expression in lung tissues (MMP-9 [2]): decreased
- eNOS expression in lung tissues (eNOS): dose-dependently increased
- Increase in eosinophils in BALF [3]: significantly reduces
- Increase in lymphocytes in BALF [3]: significantly reduces
- Increase in total cells in BALF [3]: significantly reduces
- MMP-9 positive cells (MMP-9 [4]): hardly detected
- Inflammatory cells in the peri-vascular and peri-bronchiolar regions ([5]; OVA-exposed mice): marked reductions
- Vascular and bronchial wall thickness increased by OVA-sensitization ([5]; long-term nebulization): prevents
- sGCα1 expression reduced by OVA sensitization (sGCα1): prevented
- ICAM-1 expression (ICAM-1): suppressing
- VCAM-1 expression (VCAM-1): suppressing
- PKG expression reduced by OVA sensitization (PKG): prevented
- Amount of WBC in lung lavage [6]: efficiently decrease
- BA (basophil) ([6]; day 7, dose 1 mg/kg): 0.2 ± 0.01
- EO (eosinophil) ([6]; day 7, dose 1 mg/kg): 0.44 ± 0.02
- LY (lymphocyte) ([6]; day 7, dose 1 mg/kg): 1.83 ± 0.11
- MO (monocyte) ([6]; day 7, dose 1 mg/kg): 0.12 ± 0.02
- NE (neutrophil) ([6]; day 7, dose 1 mg/kg): 0.92 ± 0.13
- WBC total (white blood cell total count) ([6]; day 7, dose 1 mg/kg): 3.51 ± 0.01
- BA (basophil) [6, 8]: 0.11 ± 0.02
- EO (eosinophil) [6, 8]: 0.17 ± 0.11
- LY (lymphocyte) [6, 8]: 1.81 ± 0.09
- MO (monocyte) [6, 8]: 0.07 ± 0.01
- NE (neutrophil) [6, 8]: 0.91 ± 0.36
- WBC total (white blood cell total count) [6, 8]: 3.2 ± 0.49
- BA (basophil) ([6]; day 7, dose 5 mg/kg): 0.1 ± 0.02
- EO (eosinophil) ([6]; day 7, dose 5 mg/kg): 0.16 ± 0.01
- LY (lymphocyte) ([6]; day 7, dose 5 mg/kg): 1.76 ± 0.01
- MO (monocyte) ([6]; day 7, dose 5 mg/kg): 0.07 ± 0.01
- NE (neutrophil) ([6]; day 7, dose 5 mg/kg): 0.33 ± 0.14
- WBC total (white blood cell total count) ([6]; day 7, dose 5 mg/kg): 2.43 ± 0.01
- BA (basophil) ([6]; day 28, dose 1 mg/kg): 0.21 ± 0.06
- EO (eosinophil) ([6]; day 28, dose 1 mg/kg): 0.42 ± 0.17
- LY (lymphocyte) ([6]; day 28, dose 1 mg/kg): 1.89 ± 0.76
- MO (monocyte) ([6]; day 28, dose 1 mg/kg): 0.2 ± 0.25
- NE (neutrophil) ([6]; day 28, dose 1 mg/kg): 0.61 ± 0.11
- WBC total (white blood cell total count) ([6]; day 28, dose 1 mg/kg): 3.41 ± 0.54
- BA (basophil) [6, 9]: 0.11 ± 0.7
- EO (eosinophil) [6, 9]: 0.17 ± 0.12
- LY (lymphocyte) [6, 9]: 1.24 ± 0.43
- MO (monocyte) [6, 9]: 0.07 ± 0.02
- NE (neutrophil) [6, 9]: 0.36 ± 0.16
- WBC total (white blood cell total count) [6, 9]: 1.95 ± 0.92
- BA (basophil) ([6]; day 28, dose 5 mg/kg): 0.1 ± 0.02
- EO (eosinophil) ([6]; day 28, dose 5 mg/kg): 0.16 ± 0.01
- LY (lymphocyte) ([6]; day 28, dose 5 mg/kg): 1.1 ± 0.01
- MO (monocyte) ([6]; day 28, dose 5 mg/kg): 0.07 ± 0.01
- NE (neutrophil) ([6]; day 28, dose 5 mg/kg): 0.33 ± 0.14
- WBC total (white blood cell total count) ([6]; day 28, dose 5 mg/kg): 1.8 ± 0.01

Structure (SMILES): CCC(C)(C)C(=O)O[C@H]1C[C@@H](C)C=C2C=C[C@H](C)[C@H](CC[C@@H](O)C[C@@H](O)CC(=O)O)[C@H]21.Cn1c(=O)c2c(ncn2CCN2CCN(c3ccccc3Cl)CC2)n(C)c1=O [KMUP-5]
- The changing amount of TGF-β in the lung tissue (TGF-β): 45 ± 4.5%
- Amount of WBC in lung lavage [6]: efficiently decrease
- BA (basophil) [6, 8]: 0.02 ± 0.01
- EO (eosinophil) [6, 8]: 0.06 ± 0.04
- LY (lymphocyte) [6, 8]: 0.45 ± 0.17
- MO (monocyte) [6, 8]: 0.03 ± 0.02
- NE (neutrophil) [6, 8]: 0.18 ± 0.08
- WBC total (white blood cell total count) [6, 8]: 0.74 ± 0.21
- BA (basophil) [6, 9]: 0.01 ± 0.16
- EO (eosinophil) [6, 9]: 0.05 ± 0.3
- LY (lymphocyte) [6, 9]: 1.32 ± 1.59
- MO (monocyte) [6, 9]: 0.06 ± 0.11
- NE (neutrophil) [6, 9]: 0.14 ± 0.39
- WBC total (white blood cell total count) [6, 9]: 1.58 ± 2.24
- Pulmonary arterial blood pressure (PABP), in words ([7]; 2.5 mg/kg orally every day): inhibit
- PABP ([7]; 2.5 mg/kg/day p.o.): 12 ± 1.3 mmHg
